Laboratory results as given in PubChem BioAssay (NCI).
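A five-concentration, 48-hour dose response in 96-well plates underlies each endpoint, interpolated linearly between surrounding concentrations. GI50 marks 50% less growth. TGI denotes the concentration required for complete inhibition of growth.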

Columns and labels:
Assay in all cases: NCI-60 cell line screen, 48 h
[1] = system: OVCAR-4 ovarian
[2] = system: T-47D breast
[3] = system: HCT-15 colon
[4] = system: U251 CNS
[5] = system: MCF7 breast
[6] = system: NCI-H460 lung
[7] = system: KM20L2 colon
[8] = system: A549 NSCLC
[9] = system: KM12 colon
[10] = system: ACHN renal
[11] = system: SK-OV-3 ovarian
[12] = system: HS 578T breast
[13] = system: MDA-MB-231 breast
[14] = system: M19-MEL melanoma
[15] = system: UO-31 renal
[16] = system: SNB-75 CNS
[17] = system: OVCAR-3 ovarian
[18] = system: BT-549 breast
[19] = system: HL-60(TB) leukemia
[20] = system: SF-268 CNS
[21] = system: SR leukemia
[22] = system: SF-295 CNS
[23] = system: COLO 205 colon
[24] = system: EKVX NSCLC
[25] = system: OVCAR-5 ovarian
[26] = system: SK-MEL-2 melanoma
[27] = system: K-562 leukemia
[28] = system: OVCAR-8 ovarian
[29] = system: CCRF-CEM leukemia
[30] = system: CAKI-1 renal
[31] = system: LXFL 529 NSCLC
[32] = system: IGROV1 ovarian
[33] = system: RXF-631 renal
[34] = system: HOP-92 NSCLC
[35] = system: SK-MEL-5 melanoma
[36] = system: SF-539 CNS
[37] = system: NCI-H226 lung
[38] = system: TK-10 renal
[39] = system: UACC-62 melanoma
[40] = system: UACC-257 melanoma
[41] = system: HT29 colon
[42] = system: NCI/ADR-RES ovarian
[43] = system: SNB-78 CNS
[44] = system: MDA-MB-435
[45] = system: 786-0 renal
[46] = system: RXF 393 renal
[47] = system: HOP-62 NSCLC
[48] = system: SW-620 colon
[49] = system: LOX IMVI melanoma
[50] = system: DLD-1 colon
[51] = system: NCI-H522 lung
[52] = system: M14 melanoma
[53] = system: RPMI-8226 leukemia
[54] = system: PC-3 prostate
[55] = system: DMS 114 small cell lung
[56] = system: NCI-H23 lung
[57] = system: A498 renal
[58] = system: HCC-2998 colon
[59] = system: SN12C renal
[60] = system: XF 498 CNS
[61] = system: HCT-116 colon
[62] = system: SNB-19 CNS
[63] = system: MOLT-4 leukemia
[64] = system: DU-145 prostate
[65] = system: SK-MEL-28 melanoma
[66] = system: MALME-3M melanoma
[67] = system: DMS 273 small cell lung

CN(C)CCONC(=O)C12CC3CC(CC(C3)C1)C2
GI50 [1]: > 100 µM
TGI [1]: > 100 µM
GI50 [2]: > 100 µM
TGI [2]: > 100 µM
TGI [3]: > 100 µM
TGI [4]: > 100 µM
GI50 [5]: > 100 µM
TGI [5]: > 100 µM
TGI [6]: > 100 µM
TGI [7]: > 100 µM
TGI [8]: > 100 µM
TGI [9]: > 100 µM
TGI [10]: > 100 µM
TGI [11]: > 100 µM
GI50 [12]: > 100 µM
TGI [12]: > 100 µM
GI50 [13]: > 100 µM
TGI [13]: > 100 µM
TGI [14]: > 100 µM
TGI [15]: > 100 µM
TGI [16]: > 100 µM
TGI [17]: > 100 µM
GI50 [18]: > 100 µM
TGI [18]: > 100 µM
TGI [19]: > 100 µM
TGI [20]: > 100 µM
TGI [21]: > 100 µM
TGI [22]: > 100 µM
TGI [23]: > 100 µM
TGI [24]: > 100 µM
TGI [25]: > 100 µM
TGI [26]: > 100 µM
TGI [27]: > 100 µM
TGI [28]: > 100 µM
TGI [29]: > 100 µM
TGI [30]: > 100 µM
TGI [31]: > 100 µM
TGI [32]: > 100 µM
TGI [33]: > 100 µM
TGI [34]: > 100 µM
TGI [35]: > 100 µM
TGI [36]: > 100 µM
TGI [37]: > 100 µM
TGI [38]: > 100 µM
TGI [39]: > 100 µM
TGI [40]: > 100 µM
TGI [41]: > 100 µM
GI50 [42]: > 100 µM
TGI [42]: > 100 µM
TGI [43]: 69.2 µM
GI50 [44]: > 100 µM
TGI [44]: > 100 µM
TGI [45]: > 100 µM
TGI [46]: > 100 µM
TGI [47]: > 100 µM
GI50 [48]: > 100 µM
TGI [48]: > 100 µM
TGI [49]: > 100 µM
TGI [50]: > 100 µM
TGI [51]: > 100 µM
TGI [52]: > 100 µM
TGI [53]: > 100 µM
GI50 [54]: > 100 µM
TGI [54]: > 100 µM
TGI [55]: > 100 µM
TGI [56]: > 100 µM
TGI [57]: > 100 µM
GI50 [58]: > 100 µM
TGI [58]: > 100 µM
TGI [59]: > 100 µM
TGI [60]: > 100 µM
TGI [61]: > 100 µM
TGI [62]: > 100 µM
TGI [63]: > 100 µM
GI50 [64]: > 100 µM
TGI [64]: > 100 µM
TGI [65]: > 100 µM

O=C(Cc1ccc(F)cc1)NC1=C(Cl)C(=O)c2ccccc2C1=O
TGI [1]: 9.28 µM
TGI [3]: 7.43 µM
TGI [4]: 11.5 µM
TGI [6]: 13.8 µM
TGI [7]: 34.8 µM
TGI [8]: 16.4 µM
TGI [9]: 14.4 µM
TGI [10]: 3.4 µM
TGI [11]: 58.3 µM
TGI [14]: 14.7 µM
TGI [15]: 7.88 µM
TGI [16]: 18.3 µM
TGI [17]: 9.33 µM
TGI [66]: 7.89 µM
TGI [19]: 0.39 µM
TGI [20]: 15.1 µM
TGI [21]: 3.34 µM
TGI [22]: 12 µM
TGI [23]: 12.7 µM
TGI [24]: 16 µM
TGI [25]: 13.1 µM
TGI [26]: 6.33 µM
TGI [28]: 4.05 µM
TGI [29]: > 100 µM
TGI [30]: 19.8 µM
TGI [31]: 10.5 µM
TGI [32]: 6.63 µM
TGI [33]: > 50 µM
TGI [34]: 3.68 µM
TGI [35]: 11.3 µM
TGI [36]: 5.02 µM
TGI [37]: 12.7 µM
TGI [38]: 14.5 µM
TGI [39]: 9.87 µM
TGI [40]: 6.56 µM
TGI [41]: 35.4 µM
TGI [67]: 13.6 µM
TGI [43]: 34.7 µM
TGI [45]: 19.5 µM
TGI [46]: 4.11 µM
TGI [47]: 44.6 µM
TGI [48]: 5.76 µM
TGI [49]: 9.05 µM
TGI [50]: 4.24 µM
TGI [51]: 1.25 µM
TGI [52]: 12.4 µM
TGI [53]: 4.14 µM
TGI [55]: 1.8 µM
TGI [56]: 5.94 µM
TGI [58]: 16 µM
TGI [59]: 13.8 µM
TGI [60]: 4.02 µM
TGI [61]: 11.9 µM
TGI [62]: > 100 µM
TGI [65]: 11.6 µM
